The source of these data is patent US20180179198A1, “TRICYCLIC MODULATORS OF TNF SIGNALING” (AbbVie Inc., priority 2015, published 2018).

Where two headings read alike, the source gives them in different places. Where only a bound is given, the exact number is not on record here.

For this assay, the target named is TNFα trimer (Homo sapiens, UniProt P01375). The experiment in a line: TNFα FP Competitive Binding Assay. The method, then: TNFα FP Competitive Binding Assay
• 1. Assay Buffer: Prepare 1× Assay Buffer (Water with 47 mM HEPES, 47 mM NaCl, 0.9 mM EDTA, 0.0071% Triton X-100) by adding 25 mL of 1 M HEPES, 5 mL of 5 M NaCl, 1 mL of 0.5 M EDTA, and 375 μL of a 10% Triton X-100 stock to a fresh 500 mL bottle of water. • 2. Assay Mixture: Prepare fresh Assay Mixture containing 20 nM TNFα trimer (60 nM protein) and 1 nM 2′,7′-difluoro-3′,6′-dihydroxy-N-(2-(2-(2-((4-(isoquinolin-8-yl)-3-(4-(isoquinolin-8-yl)phenethoxy)benzyl)oxy)ethoxy)ethoxy)ethyl)-3-oxo-3H-spiro[isobenzofuran-1,9′-xanthene]-5-carboxamide probe in 1× Assay Buffer.
Compound Plate Preparation
Manual 12-point 1:3 Dilution Plates: (384 well polypropylene plates)
Top concentration of compounds, 10 mM in DMSO, dispensed in rows A-O in columns 1 and 13. Compounds are serially diluted 1:3 with DMSO in columns 2-12 or 14-24 using a 16-channel Matrix pipettor. Plates stored at −20° C.
Discovery Preps 12-point 1:3 Dilution Plates: (384 well assay plates)
Top concentration, 5 mM in DMSO, of compounds placed in rows A-O in columns 1 and 13. Compounds are serially diluted 1:3 with DMSO in columns 2-12 or 14-24. Compound solutions are dispensed into replicate assay plates at 410 nL per well. Plates stored at 4° C.
TNFα FP Competitive Binding Assay Protocol
• 1. Compound plates are warmed to rt. • 2. Fresh Assay Mixture is prepared. • 3. Assay Mixture (20 μL) is dispensed each well of 384 assay plates using a Thermo Multidrop Combi or 16-channel Matrix pipettor. If Manual 12-point 1:3 Dilution Plates are to be tested, Assay Mix is dispensed into empty plates. Discovery Preps 12-point 1:3 Dilution Plates already contain 410 nL compound solution in DMSO. • 4. For Manual 12-point 1:3 Dilution Plates, 0.7 μL is manually transferred using a 16-channel Matrix pipettor to replicate assay plates containing 20 μL Assay Mixture for a final top compound concentration of 338 μM (3.4% DMSO). • 5. For Discovery Preps 12-point 1:3 Dilution Plates, 20 μL Assay Mixture added the 410 nL compound solution already in the plates yields a final top compound concentration of 100 μM (2.0% DMSO). • 6. Background subtraction controls are wells P1-P8 containing only Assay Buffer. The low % inhibition controls are wells P9-P16 containing only Assay Mix. The high % inhibition are wells P17-P24 containing only 1 nM 2′,7′-difluoro-3′,6′-dihydroxy-N-(2-(2-(2-((4-(isoquinolin-8-yl)-3-(4-(isoquinolin-8-yl)phenethoxy)benzyl)oxy)ethoxy)ethoxy)ethyl)-3-oxo-3H-spiro[isobenzofuran-1,9′-xanthene]-5-carboxamide probe in 1× Assay Buffer. • 7. Plates are incubated at […] for 18-24 h in 37° C. incubator (CO2 is off). • 8. Prior to reading the assay, the plates are placed in a dark cabinet to equilibrate at rt for one hour. • 9. Background-subtracted fluorescence polarization (mP) is measured using a PerkinElmer Envision plate reader. • 10. Raw data is entered into Assay Explorer and dose-response curves are generated using a variable slope curve.

Setting [1] is: fluorescence polarization competition, 20 nM TNFα trimer, 1 nM OregonGreen488 probe, read-out: TNF IC50 (TNFα FP binding assay IC50).
[2] abbreviates: TNFα FP competitive binding assay, class symbols A/B/C, read-out: TNF IC50.

Sequence of TNFα trimer (P01375 77-233 limits assumed): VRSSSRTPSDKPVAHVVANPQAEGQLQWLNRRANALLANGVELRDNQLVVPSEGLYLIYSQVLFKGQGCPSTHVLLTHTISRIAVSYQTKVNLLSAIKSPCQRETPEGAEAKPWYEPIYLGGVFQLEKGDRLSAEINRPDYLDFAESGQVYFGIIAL

On to `CCN(C)C(=O)c1cccc(-c2ccc3nc4n(c3c2)C(c2ccccc2)CC4)c1` (centres unmarked) [A.44], for which the IC50 – broadly, the concentration that inhibits the measured activity by half – under setting [1] was 10 to 100 µM.
The same measure, in the same setting: in the case of `CN(C)CCNC(=O)c1cccc(-c2ccc3nc4n(c3c2)C(c2ccccc2)CC4)c1` (centres unmarked) [A.45] it was 10 to 100 µM; in that of `Cn1cc(-c2ccc3nc4n(c3c2)C(c2ccccc2)CC4)ccc1=O` (centres unmarked) [A.46], 10 to 100 µM; in that of `Cn1ccc(-c2ccc3nc4n(c3c2)C(c2ccccc2)CC4)c1` (centres unmarked) [A.47], 10 to 100 µM.
Regarding `OC1(c2ncc(-c3ccc4nc5n(c4c3)[C@@H](c3ccccc3)CC5)cn2)CCOCC1` [AA.1], under setting [2], the IC50 was under 1 µM.
Take `OC1(c2ncc(-c3ccc4nc5n(c4c3)[C@@H](c3ccccc3)CC5)cn2)CCC1` [AA.2]: the IC50 under setting [2] was under 1 µM.
`OC1(c2ncc(-c3ccc4nc5n(c4c3)[C@@H](c3ccccc3)CC5)cn2)COC1` [AA.3]: under setting [2], the IC50 is under 1 µM.
As for `c1ccc([C@H]2CCc3nc4ccc(-c5ccnc(OC6CCOCC6)c5)cc4n32)cc1` [AA.4], under setting [2], the IC50 was under 1 µM.
Regarding `c1ccc([C@H]2COCc3nc4ccc(-c5cnc(N6CCOCC6)nc5)nc4n32)cc1` [AB.1], under setting [2], the IC50 was under 1 µM.
In the case of `CC(C)(O)c1ncc(-c2ccc3nc4n(c3n2)[C@@H](c2ccccc2)COC4)cn1` [AB.2], under setting [2], the IC50 is under 1 µM.
Regarding `O=C1CN(c2ncc(-c3ccc4nc5n(c4n3)[C@@H](c3ccccc3)COC5)cn2)CCN1` [AB.3], under setting [2], the IC50 was under 1 µM.
For `OC1CCN(c2ncc(-c3ccc4nc5n(c4n3)[C@@H](c3ccccc3)COC5)cn2)CC1` [AB.4], under setting [2], the IC50 is under 1 µM.
For `O=C1NCN2CCN(c3ncc(-c4ccc5nc6n(c5n4)[C@@H](c4ccccc4)COC6)cn3)CC12` (some centres unmarked) [AB.5], the IC50 under setting [2] is under 1 µM.
As for `COc1ccccc1[C@H]1COCc2nc3ccc(-c4cnc(N5CCC(O)CC5)nc4)nc3n21` [AC.1], under setting [2], the IC50 is under 1 µM.
As to `COc1ccccc1C1CCc2nc3ccc(-c4cnc(N5CCC(O)CC5)nc4)nc3n21` (centres unmarked) [AD.1], the half-maximal inhibitory concentration (IC50) under setting [2] is under 1 µM.
As for `COc1ccccc1C1CCc2nc3ccc(-c4cnc(N5CCN6C(=O)NCC6C5)nc4)nc3n21` (centres unmarked) [AD.2], the IC50 under setting [2] is under 1 µM.
On to `COc1ccccc1C1CCCc2nc3ccc(-c4cnc(N5CCC(O)CC5)nc4)nc3n21` (centres unmarked) [AE.1], for which the IC50 under setting [2] was under 1 µM.
Consider `O=C1NC[C@@H]2CN(c3ncc(-c4ccc5nc6c(n5c4)[C@@H](c4ccccc4)COC6)cn3)CCN12` [AF.1], for which, under setting [2], the IC50 is under 1 µM.
In the case of `O=C1NC[C@@H]2CN(c3ncc(-c4ccc5nc6c(n5n4)[C@@H](c4ccccc4)COC6)cn3)CCN12` [AF.2], under setting [2], the IC50 is under 1 µM.
For `COc1ccccc1C1CCc2nc3ccc(-c4cnc(N5CCOCC5)nc4)cn3c21` (centres unmarked) [AG.1], the half-maximal inhibitory concentration (IC50) under setting [2] is under 1 µM.
`O=C1NCC2CN(c3ncc(-c4ccc5nc6n(c5c4)C(c4ccccc4F)COC6)cn3)CCN12` (centres unmarked) [AH.1]: the IC50 under setting [2] is under 1 µM.
For the molecule `O=C1NCC2CN(c3ncc(-c4ccc5nc6n(c5c4)C(c4cccc(Cl)c4)COC6)cn3)CCN12` (centres unmarked) [AH.2], the IC50 under setting [2] was under 1 µM.
For the molecule `O=C1NCC2CN(c3ncc(-c4ccc5nc6n(c5c4)[C@@H](c4ccccc4Cl)COC6)cn3)CCN12` (some centres unmarked) [AH.3], under setting [2], the IC50 was under 1 µM.
With `O=C1NCC2CN(c3ncc(-c4ccc5nc6n(c5c4)C(c4cccc(C(F)(F)F)c4)COC6)cn3)CCN12` (centres unmarked) [AH.4], the IC50 under setting [2] was under 1 µM.
With `O=C1NCC2CN(c3ncc(-c4ccc5nc6n(c5n4)[C@@H](C4CCCCC4)CC6)cn3)CCN12` (some centres unmarked) [AH.5], under setting [2], the IC50 was under 1 µM.
Take `O=C1NCC2CN(c3ncc(-c4ccc5nc6n(c5n4)C(C4CCCCC4)CC6)cn3)CCN12` (centres unmarked) [AH.6]: under setting [2], the 50% inhibitory concentration (IC50) is under 1 µM.
On to `O=C1NCC2CN(c3ncc(-c4ccc5nc6n(c5n4)C(c4ccccc4F)COC6)cn3)CCN12` (centres unmarked) [AH.7], for which, under setting [2], the IC50 was under 1 µM.
Turning to `O=C1NCC2CN(c3ncc(-c4ccc5nc6n(c5n4)C(c4cccc(F)c4)COC6)cn3)CCN12` (centres unmarked) [AH.8], the IC50 under setting [2] was under 1 µM.
Consider `CC1(c2ccccc2)CCc2nc3ccc(-c4cnc(N5CCN6C(=O)NCC6C5)nc4)nc3n21` (centres unmarked) [AH.9], for which the concentration for half-maximal inhibition (IC50) under setting [2] was under 1 µM.
Consider `OC1CCN(c2ncc(-c3ccc4nc5n(c4n3)C(c3cccc(F)c3)COC5)cn2)CC1` (centres unmarked) [AI.1], for which the IC50 under setting [2] was under 1 µM.
`COc1ccccc1C1CCCc2nc3ccc(-c4cnc(N5CCC(O)CC5)nc4)cn3c21` (centres unmarked) [AJ.1]: under setting [2], the IC50 was under 1 µM.
On the same count and under the same terms, in the case of `COc1ccccc1C1CCCc2nc3ccc(-c4cnc(N5CCCC(O)CC5)nc4)cn3c21` (centres unmarked) [AJ.2] it was under 1 µM.
On to `COc1ccccc1C1CCCc2nc3ccc(-c4cnc(N5CCC(F)(CO)CC5)nc4)cn3c21` (centres unmarked) [AJ.3], for which the IC50 under setting [2] is under 1 µM.
With `COc1ccccc1C1CCCc2nc3ccc(-c4cnc(N5CCC(O)C(F)(F)C5)nc4)cn3c21` (centres unmarked) [AJ.4], the IC50 under setting [2] is under 1 µM.
On to `COc1ccccc1C1CCCc2nc3ccc(-c4cnc(N5CCC(C)(O)CC5)nc4)cn3c21` (centres unmarked) [AJ.5], for which the IC50 under setting [2] was under 1 µM.
As for `COc1ccccc1C1CCCc2nc3ccc(-c4cnc(N5CCN6C(=O)NCC6C5)nc4)cn3c21` (centres unmarked) [AJ.6], the IC50 under setting [2] is under 1 µM.
With `COc1ccccc1C1CCCc2nc3ccc(-c4cnc(N5CCCOCC5)nc4)cn3c21` (centres unmarked) [AJ.7], the 50% inhibitory concentration (IC50) under setting [2] was under 1 µM.
Same read-out and setting: the value for `COc1ccccc1C1CCCc2nc3ccc(-c4cnc(N5CCC6(CC5)CC(O)C6)nc4)cn3c21` (centres unmarked) [AJ.8] was under 1 µM; that for `OC[C@@H]1CCCN1c1ncc(-c2ccc3nc4n(c3n2)[C@@H](c2ccccc2)CC4)cn1` [AK.1] was 1 to 10 µM.
Take `CS(=O)(=O)CCn1ccc(-c2ccc3nc4n(c3n2)[C@@H](c2ccccc2)CC4)cc1=O` [AK.2]: the IC50 under setting [2] was 10 to 100 µM.
Take `CC(C)(O)Cn1ccc(-c2ccc3nc4n(c3n2)[C@@H](c2ccccc2)CC4)cc1=O` [AK.3]: the IC50 under setting [2] was 10 to 100 µM.
As for `CC(O)c1ncc(-c2ccc3nc4n(c3n2)[C@@H](c2ccccc2)CC4)cn1` (some centres unmarked) [AL.1], the IC50 under setting [2] is 1 to 10 µM.
Same read-out and setting: in the case of `OC(CC1CC1)c1ncc(-c2ccc3nc4n(c3n2)[C@@H](c2ccccc2)CC4)cn1` (some centres unmarked) [AL.2] it was 1 to 10 µM; in that of `OC(c1ncc(-c2ccc3nc4n(c3n2)[C@@H](c2ccccc2)CC4)cn1)C1CCOCC1` (some centres unmarked) [AL.3], 1 to 10 µM.
Take `CC(O)(c1ncc(-c2ccc3nc4n(c3n2)[C@@H](c2ccccc2)CC4)cn1)C1CCOCC1` (some centres unmarked) [AL.4]: the IC50 under setting [2] was in the range of 1 to 10 µM.
Turning to `CC(O)(CC1CC1)c1ncc(-c2ccc3nc4n(c3n2)[C@@H](c2ccccc2)CC4)cn1` (some centres unmarked) [AL.5], under setting [2], the IC50 was 1 to 10 µM.
As to `COc1cccc([C@H]2CCc3nc4ccc(-c5cnc(N6CCN7C(=O)NC[C@@H]7C6)nc5)nc4n32)c1` [AM.1], the 50% inhibitory concentration (IC50) under setting [2] is under 1 µM.
Regarding `COc1cccc([C@H]2CCc3nc4ccc(-c5cnc(N6CCN(C(C)=O)[C@H](C)C6)nc5)nc4n32)c1` [AM.2, 1-((R)-4-(5-((R)-8-(3-methoxyphenyl)-7,8-dihydro-6H-pyrrolo[2′,1′:2,3]imidazo[4,5-b]pyridin-2-yl)pyrimidin-2-yl)-2-methylpiperazin-1-yl)ethanone], under setting [2], the IC50 was under 1 µM.
`COc1cccc([C@@H]2CCc3nc4ccc(-c5cnc(N6CCN7C(=O)NC[C@@H]7C6)nc5)nc4n32)c1` [AN.1]: under setting [2], the IC50 lay within 10 to 100 µM.
Same read-out and setting: the value for `COc1ccccc1[C@H]1CCc2nc3ccc(-c4cnc(N5CCN6C(=O)NC[C@@H]6C5)nc4)nc3n21` [AO.1] was under 1 µM; that for `COc1ccccc1[C@H]1CCc2nc3ccc(-c4cnc(N5CCN6C(=O)NC[C@H]6C5)nc4)nc3n21` [AO.2] was under 1 µM; that for `COc1ccccc1[C@H]1CCc2nc3ccc(-c4cnc(N5CCC(O)CC5)nc4)nc3n21` [AO.3] was under 1 µM.
With `COc1ccccc1[C@H]1CCc2nc3ccc(-c4cnc(N5CCN(C(=O)CO)[C@H](C)C5)nc4)nc3n21` [AO.4], under setting [2], the IC50 is under 1 µM.
Consider `COc1ccccc1[C@@H]1CCc2nc3ccc(-c4cnc(N5CCN6C(=O)NC[C@@H]6C5)nc4)nc3n21` [AP.1], for which the IC50 under setting [2] fell in the range of 1 to 10 µM.
Regarding `OC1CCC(Oc2cc(-c3ccc4nc5n(c4n3)[C@@H](c3ccccc3)CC5)ccn2)C1` (some centres unmarked) [AQ.1], the IC50 under setting [2] is under 1 µM.
Consider `OC1CCC(Oc2cc(-c3ccc4nc5n(c4n3)[C@@H](c3ccccc3)CC5)ccn2)CC1` (some centres unmarked) [AQ.2], for which, under setting [2], the IC50 was under 1 µM.
